Drawing on patent publication US8163737B2 (Vertex Pharmaceuticals Incorporated, priority 2006, dated 2012), this text covers IC50 and Ki for 32 compounds.

In one test the target is endogenous CGRP receptor (Homo sapiens, UniProt O60894+Q16602). The test is described as follows: CGRP functional antagonism using SK-N-MC-BLA (4C10), β-lactamase transcriptional reporter assay. The test is classed as cell-based. The following applies: SK-N-MC (4C10) cells, inhibition of β-lactamase expression in the presence of 200 pM CGRP. (Reporter assays use an easily measured gene product as a stand-in for the process of interest.)
Sequence of endogenous CGRP receptor (Q16602 23-461): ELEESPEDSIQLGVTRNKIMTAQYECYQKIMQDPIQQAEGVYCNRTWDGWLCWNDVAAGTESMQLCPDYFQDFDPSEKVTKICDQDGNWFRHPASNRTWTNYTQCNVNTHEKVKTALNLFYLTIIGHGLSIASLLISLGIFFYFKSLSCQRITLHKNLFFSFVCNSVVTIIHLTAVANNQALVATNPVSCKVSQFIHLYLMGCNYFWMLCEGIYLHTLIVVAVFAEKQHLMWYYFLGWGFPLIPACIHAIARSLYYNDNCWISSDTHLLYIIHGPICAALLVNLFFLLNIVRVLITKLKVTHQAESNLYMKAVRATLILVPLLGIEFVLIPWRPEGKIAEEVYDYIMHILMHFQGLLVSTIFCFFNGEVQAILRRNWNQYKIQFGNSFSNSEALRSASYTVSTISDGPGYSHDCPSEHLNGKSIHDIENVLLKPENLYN
Sequence of endogenous CGRP receptor (O60894 27-148): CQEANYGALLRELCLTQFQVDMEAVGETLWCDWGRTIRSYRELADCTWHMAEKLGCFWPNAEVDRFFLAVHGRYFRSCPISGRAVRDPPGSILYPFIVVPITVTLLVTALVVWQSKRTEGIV

In test [1] the target is T1, CGRP receptor (SK-N-MC membrane) (Homo sapiens, UniProt O60894+Q16602).
T1 construct: Purified SK-N-MC membrane was purchased from Perkin Elmer; purchased Perkin Elmer; host or cells: SK-N-MC membrane
T1 sequence (Q16602 23-461): as the sequence (Q16602 23-461) above
T1 sequence (O60894 27-148): as the sequence (O60894 27-148) above
The test is described as follows: I125-CGRP binding displacement assay on purified SK-N-MC membrane. The essentials: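 Displacement of I125-CGRP binding was measured by filtration and scintillation counting after 2 h room-temperature incubation with compound and SK-N-MC membranes (buffer pH 7.4, MgCl2, BSA, Tween). Percent displacement calculated against total binding and 1 uM cold CGRP nonspecific controls, then curve-fitted.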

On to `CN1CCN(c2ccccc2[C@H]2S[C@](C)(CC(=O)N3CCC(n4c(=O)[nH]c5ncccc54)CC3)C(=O)N2CCC(C)(C)C)CC1` [Compound 380], for which, at endogenous CGRP receptor, the IC50 (in general, the point on the concentration scale where inhibition reaches its midpoint) was under 1000 nM. Moreover, the inhibition constant (Ki) – broadly, the dissociation constant of the complex between target and ligand, obtained from inhibition or displacement – in test [1] is under 1000 nM.
Turning to `CC(C)OCCN1C(=O)[C@H](CC(=O)N2CCC(N3CCc4ccccc4NC3=O)CC2)SC1c1cccc(F)c1N1CCN(C(C)(C)C)CC1` (stereo partly shown) [Compound 526], the IC50 on endogenous CGRP receptor was under 1000 nM. The same compound showed a Ki in test [1] of under 1000 nM.
For the compound `CC(C)(C)CCN1C(=O)[C@H](CC(=O)N2CCC(N3CCc4ccccc4NC3=O)CC2)SC1c1cccc(F)c1N1CCC(O)C1` (stereo partly shown) [Compound 463], at endogenous CGRP receptor, the IC50 is 1000 to 5000 nM. The same compound yielded a Ki in test [1] of under 1000 nM.
With `CC(C)N1CCN(c2c(F)cccc2[C@H]2S[C@@](C)(CC(=O)N3CCC(N4CCc5ccccc5NC4=O)CC3)C(=O)N2CCC(C)(C)C)CC1` [Compound 432], at endogenous CGRP receptor, the IC50 is under 1000 nM. The same compound registered a Ki in test [1] of under 1000 nM.
For `CC(C)CCN1C(=O)C(CC(=O)N2CCC(N3Cc4ccccc4NC3=O)CC2)SC1c1ccc(F)c(F)c1` (stereo not shown) [Compound 202], on endogenous CGRP receptor, the IC50 was under 1000 nM. For the same compound, the Ki in test [1] is under 1000 nM.
With `CN1CCN(c2ccccc2C2SC(CC(=O)N3CCC(n4c(=O)[nH]c5ccccc54)CC3)C(=O)N2CCC(C)(C)C)CC1` (stereo not shown) [Compound 302], the IC50 at endogenous CGRP receptor is under 1000 nM. This compound registered a Ki in test [1] of under 1000 nM.
For `CC(C)CCN1C(=O)C(CC(=O)N2CCC(N3Cc4ccccc4NC3=O)CC2)SC1c1ccc(F)cc1F` (stereo not shown) [Compound 212], the IC50 at endogenous CGRP receptor was under 1000 nM. Also, the Ki in test [1] was under 1000 nM.
Turning to `CC(C)(C)CCN1C(=O)C(CC(=O)N2CCC(N3Cc4ccccc4NC3=O)CC2)SC1c1ccccc1N1CCN(CCO)CC1` (stereo not shown) [Compound 371], on endogenous CGRP receptor, the IC50 was under 1000 nM. The Ki in test [1] was under 1000 nM.
Regarding `CC(C)CCN1C(=O)C(CC(=O)N2CCC(N3CCc4ccccc4NC3=O)CC2)SC1c1ccccc1-n1cccn1` (stereo not shown) [Compound 183], the IC50 at endogenous CGRP receptor is under 1000 nM. Further, in test [1], the Ki was under 1000 nM.
With `CC(C)(C)CCN1C(=O)C(CC(=O)N2CCC(N3CCc4ccccc4NC3=O)CC2)SC1c1ccc(F)cc1F` (stereo not shown) [Compound 54], the 50% inhibitory concentration (IC50) on endogenous CGRP receptor is under 1000 nM. For the same compound, the Ki in test [1] was under 1000 nM.
Turning to `CC(C)(C)CCN1C(=O)C(CC(=O)N2CCC(N3CCc4ccccc4NC3=O)CC2)SC1c1ccccc1-n1ccnc1` (stereo not shown) [Compound 28], on endogenous CGRP receptor, the IC50 was under 1000 nM. This compound came in with a Ki in test [1] of under 1000 nM.
`CC(C)(C)CCN1C(=O)[C@H](CC(=O)N2CCC(N3CCc4ccccc4NC3=O)CC2)SC1c1ccccc1N1CCNCC1=O` (stereo partly shown) [Compound 512]: the IC50 on endogenous CGRP receptor was under 1000 nM. Also, the Ki in test [1] is under 1000 nM.
Consider `CN1CCN(c2c(F)cccc2C2SC(CC(=O)N3CCC(N4CCc5ccccc5NC4=O)CC3)C(=O)N2CCC(C)(C)C)CC1` (stereo not shown) [Compound 324], for which, on endogenous CGRP receptor, the half-maximal inhibitory concentration (IC50) is under 1000 nM. The same compound registered a Ki in test [1] of under 1000 nM.
On to `CC(C)(C)N1CCN(c2c(F)cccc2[C@H]2S[C@@H](CC(=O)N3CCC(N4CCc5ccccc5NC4=O)CC3)C(=O)N2CC2CCOCC2)CC1` [Compound 523], for which the IC50 at endogenous CGRP receptor was under 1000 nM. In addition, the Ki in test [1] was under 1000 nM.
In the case of `CC(C)(C)CCN1C(=O)[C@H](CC(=O)N2CCC(N3CCc4ccccc4NC3=O)CC2)S[C@@H]1c1ccccc1C1CCNCC1` [Compound 501, 4,5-Dihydro-3-(1-(2-((2R,5S)-3-(3,3-dimethylbutyl)-4-oxo-2-(2-(piperidin-4-yl)phenyl)thiazolidin-5-yl)acetyl)piperidin-4-yl)-1H-benzo[d][1,3]diazepin-2(3H)-one], the IC50 at endogenous CGRP receptor was under 1000 nM. Moreover, in test [1], the Ki is under 1000 nM.
Turning to `CC(C)(C)N1CCN(c2c(F)cccc2[C@@H]2S[C@@H](CC(=O)N3CCC(N4CCc5ccccc5NC4=O)CC3)C(=O)N2Cc2ccccc2)CC1` [Compound 548], the IC50 at endogenous CGRP receptor was under 1000 nM. In test [1], this compound showed a Ki of under 1000 nM.
With `CC(C)CCN1C(=O)C(CC(=O)N2CCC(N3Cc4ccccc4NC3=O)CC2)SC1c1cccnc1` (stereo not shown) [Compound 182], the IC50 on endogenous CGRP receptor is under 1000 nM. The same compound came in with an inhibition constant Ki in test [1] of under 1000 nM.
As for `O=C(CC1SC(c2ccccc2)N(CCc2ccncc2)C1=O)N1CCC(n2cc(-c3ccccc3)[nH]c2=O)CC1` (stereo not shown) [Compound 53], at endogenous CGRP receptor, the IC50 is over 5000 nM. In test [1], this compound returned a Ki of over 5000 nM.
`Cc1cc(C2SC(CC(=O)N3CCC(N4Cc5ccccc5NC4=O)CC3)C(=O)N2CC2CCCCC2)cc2cn[nH]c12` (stereo not shown) [Compound 145]: the IC50 at endogenous CGRP receptor is under 1000 nM. This compound also returned a Ki in test [1] of under 1000 nM.
`CC(C)CCN1C(=O)C(CC(=O)N2CCC(N3Cc4ccccc4NC3=O)CC2)S(=O)(=O)C1c1ccc(F)cc1F` (stereo not shown) [Compound 203]: at endogenous CGRP receptor, the IC50 lay in the range of 1000 to 5000 nM. For the same compound, in test [1], the Ki is under 1000 nM.
Take `Cc1ccccc1C1SC(CC(=O)N2CCC(N3Cc4ccccc4NC3=O)CC2)C(=O)N1CCC(C)C` (stereo not shown) [Compound 172]: the IC50 at endogenous CGRP receptor is under 1000 nM. Also, the Ki in test [1] is under 1000 nM.
Consider `CC(C)CCN1C(=O)C(CC(=O)N2CCC(N3Cc4ccccc4NC3=O)CC2)[S+]([O-])C1c1ccccc1` (stereo not shown) [Compound 118], for which the concentration for half-maximal inhibition (IC50) on endogenous CGRP receptor lay within 1000 to 5000 nM. Also, the inhibition constant (Ki) in test [1] was under 1000 nM.
The matching figures for `CC(C)CCN1C(=O)C(CC(=O)N2CCC(N3Cc4ccccc4NC3=O)CC2)SC1c1c(Cl)cccc1Cl` (stereo not shown) [Compound 76]: under 1000 nM and under 1000 nM.
The matching figures for `COc1ccc(C2SC(CC(=O)N3CCC(N4Cc5ccccc5NC4=O)CC3)C(=O)N2CCC(C)C)c(F)c1` (stereo not shown) [Compound 283]: 1000 to 5000 nM and under 1000 nM.
The like results for `CC(C)(C)N1CCN(c2c(F)cccc2C2S[C@@H](CC(=O)N3CCC(n4c(=O)[nH]c5ncccc54)CC3)C(=O)N2Cc2ccccc2)CC1` (stereo partly shown) [Compound 540] were, in that order, under 1000 nM and under 1000 nM.
Turning to `CC(C)(C)CCN1C(=O)C(CC(=O)N2CCC(n3c(=O)[nH]c4ncccc43)CC2)SC1c1cccc(F)c1NCCN1CCOCC1` (stereo in doubt) [Compound 517, 1-(1-(2-((5S)-2-(2-(2-Morpholinoethylamino)-3-fluorophenyl)-3-(3,3-dimethylbutyl)-4-oxothiazolidin-5-yl)acetyl)piperidin-4-yl)-1H-imidazo[4,5-b]pyridin-2(3H)-one], at endogenous CGRP receptor, the 50% inhibitory concentration (IC50) is under 1000 nM. In test [1], this compound registered a Ki of under 1000 nM.
As for `CC(C)CCN1C(=O)C(CC(=O)N2CCC(N3Cc4ccccc4NC3=O)CC2)SC1c1ccccc1` (stereo not shown) [Compound 12], at endogenous CGRP receptor, the IC50 was under 1000 nM. This compound had a Ki in test [1] of under 1000 nM.
`CN1CCN(c2c(Cl)cccc2C2SC(CC(=O)N3CCC(n4c(=O)[nH]c5ncccc54)CC3)C(=O)N2CCC(C)(C)C)CC1` (stereo not shown) [Compound 357]: the 50% inhibitory concentration (IC50) at endogenous CGRP receptor is under 1000 nM. The inhibitory constant (Ki) in test [1] is under 1000 nM.
As to `CC(C)(C)CCN1C(=O)[C@H](CC(=O)N2CCC(N3CCc4ccccc4NC3=O)CC2)SC1c1cccc(F)c1N1CC[C@H](O)C1` (stereo partly shown) [Compound 486], at endogenous CGRP receptor, the IC50 was under 1000 nM. In addition, the Ki in test [1] is under 1000 nM.
With `CC(C)(C)CCN1C(=O)[C@H](CC(=O)N2CCC(N3CCc4ccccc4NC3=O)CC2)SC1c1cccc(F)c1N1CCC(F)C1` (stereo partly shown) [Compound 481], the IC50 at endogenous CGRP receptor was 1000 to 5000 nM. In test [1], this compound showed a Ki of under 1000 nM.
The matching figures for `CC(C)CC1SC(CC(=O)N2CCC(N3Cc4ccccc4NC3=O)CC2)C(=O)N1CCc1ccncc1` (stereo not shown) [Compound 43]: 1000 to 5000 nM and under 1000 nM.
Turning to `CC(C)CCN1C(=O)C(CC(=O)N2CCC(N3CCc4ccccc4NC3=O)CC2)SC1c1c(F)cccc1C(F)(F)F` (stereo not shown) [Compound 194], on endogenous CGRP receptor, the IC50 is under 1000 nM. In test [1], the Ki is under 1000 nM.
